We go through two compounds from US20210113687A1, “METHODS FOR TREATING INFLAMMATION” (NEW YORK UNIVERSITY, priority 2013, published 2021).

Structures are written as SMILES.

Assay [1] concerns BMDM. Description: BMDM migration towards MCP-1 (xCelligence). It is filed as cell-based, mouse. The settings on record: CoCl2-treated vs control macrophages. The method, then: Macrophage chemotaxis was measured using the Real-Time Cell Invasion and Migration xCelligence Assay System with monitoring every 3 min (Roche Applied Science). BMDM migration towards MCP-1 (100 ng/ml; R&D Systems) was measured in the presence or absence of oxLDL (50 μg/ml) and/or recombinant rat UNC5b-Fc chimera (1006-UN; R&D Systems) to block the effects of netrin-1. In a subset of experiments, cells were pre-treated with 0.1 mmol/L CoCl2 for 1 h prior to migration. J774 macrophage migration was carried out in the presence or absence of UNC5b-Fc chimera. Results of chemotaxis assays are representative of at least three independent experiments performed on triplicate samples.

The next assay has as its system BMDMs. Description: qPCR of Sema3e mRNA in macrophages. It is filed as cell-based, mouse. The settings on record: BMDM, CoCl2. The method, then: Total RNA was isolated from cells using TRIzol Reagent (Invitrogen). RNA (1 μg) was reverse-transcribed with an iScript cDNA Synthesis kit according to the manufacturer's instructions (Bio-Rad). KAPA SYBR FAST qPCR Master Mix was used for RT-PCR analysis. Primers used are listed in supplemental Table I. The change in mRNA expression was calculated by the comparative change in cycle method (ΔΔCT). All data were normalized to GAPDH or 28S and were expressed as fold change over the control.
RAW264.7 cells were obtained from American Type Culture Collection. Peritoneal macrophages (pMø) were collected from mice by peritoneal lavage 4 d after intraperitoneal injection of 3% (wt/vol) thioglycollate as previously described (Kunjathoor, et al., J Biol Chem., 2002, 277:49982-49988). Bone marrow derived macrophages (BMDMs) were prepared from mice as previously described (Kunjathoor, et al., J Biol Chem., 2002, 277:49982-49988). For gene expression experiments, macrophages were plated at 1×10^6 cells/well in 6 well plates. CoCl2 (0.1M solution) was obtained from Sigma and used at the concentrations indicated to mimic hypoxia. Oxidation or acetylation of LDL (50 μg/mL; Biomedical Technologies) was performed as described (Kunjathoor, et al., J Biol Chem., 2002, 277:49982-49988). Recombinant IL-4 and IFN-γ were purchased from PeproTech. Ultrapure LPS from E. coli K12 was purchased from InvivoGen.
(In qPCR the cycle at which signal appears reflects the starting amount.)

The subject of assay [2] is BMDM. Description: qRT-PCR of BMDM (palmitate, cytokines, adipocyte conditioned media). Type of assay: cell-based, mouse. Conditions: BMDMs, palmitate conjugated to BSA. On the procedure: (§1) Real-time Quantitative RT-PCR Analysis RNA (0.5-1 μg) was reverse transcribed using iScript™ cDNA Synthesis Kit (Biorad) and RT-PCR analysis was conducted using kapa SYBR green Supermix (kappa syber) and a Mastercycler Realplex (Eppendorf) the primers used are listed. Fold change in mRNA expression was calculated using the comparative cycle method (ΔΔCt).
(§2) Cell culture. Primary bone marrow derived macrophage (BMDM) was prepared by flushing the bone marrow of the tibia and femur of 6-8 week old C57/B6 mice. The cells were grown in DMEM supplemented with 15% L929-conditioned media, 10% FBS and 1% penicillin/streptomycin for 7 days. BMDM were stimulated 250 pM palmitate conjugated with BSA or BSA as a control for 24 hours, or TNFα (10 ng/ml, 410-MT-010; R&D systems), IL-6 (40 nglml, 406-ML-005; R&D systems) and IL-4 (1 Onglml, 404-ML-010; R&D systems) for 24 h. In some assays, differentiated BMDM were treated with conditioned media from 3T3-L1 adipocytes differentiated as described (Lin, et al., J Biol Chem, 2005; 280:4617-4626) and treated with 250 pM palmitate conjugated with BSA or BSA for 24 hours. In certain experiments, anti-TNFα (0.4 μg/ml, AF-410-NA, R&D systems) or anti-IL-6 (0.025 μg/ml, MAB406; R&D systems) blocking antibody or IgG control (Normal Goat IgG: AB-108-C, Rat IgG1: MAB005; R&D systems) was added to conditioned media. Peritoneal macrophages were isolated as described (van Gils, et al., Nat Immunol, 2012; 13:136-143). Mice were injected intraperitoneally with 1 ml of 3% (wt/vol) thioglycolate to elicit sterile sterile peritonitis with macrophage numbers peaking on day 4. Cells were collected by lavage and used for migration assays.
Palmitate-BSA preparation. Sodium palmitate (P9767; Sigma Aldrich) was dissolved in sterile water in to make a 100-mM solution by alternating heating and vortexing until the palmitate was dissolved. Thu occurred once the solution reached 70 C. […]

Assay [3] concerns human NTNI promoter-luciferase reporter. Kind of assay: NTN1 promoter-luciferase assay (Example 4). The settings on record: HEK293 cells. It is filed as cell-based. On the procedure: (§3) Promoter-Luciferase assays. HEK293T cells were transfected with human NTNI or Unc5H2 promoter-luciferase reporter constructs (SwitchGear Genomics) using Lipofectamine™ 2000 (11668-019, Invitrogen) After transfection, media was changed and cells were treated with palmitate or BSA for 24 hours, in the presence or absence of the NFkB inhibitor BAY 11-7082 (10 μmol/L). Luciferase activity was measured using the DUAL-Glo Luciferase Assay system (E1910, Promega).

For assay [4], the system named is human Unc5H2 promoter-luciferase reporter. Kind of assay: Unc5H2 promoter-luciferase assay (Example 4). It is filed as cell-based. The settings on record: HEK293 cells. On the procedure: as §3
Assay [5] has as its system BMDM. Kind of assay: netrin-1 ELISA of BMDM supernatants. Type of assay: cell-based, mouse. On the procedure: as §2, with “Peritoneal macrophages were isolated as described (van Gils, et al., Nat Immunol, 2012; 13:136-143). Mice were injected intraperitoneally with 1 ml of 3% (wt/vol) thioglycolate to elicit sterile sterile peritonitis with macrophage numbers peaking on day 4. Cells were collected by lavage and used for migration assays.” left out
ELISA assay. Insulin (90080; crystal Chem Inc), adiponectin (ab108785; Abeam), FFA (SFA-1; Zen Bio), TNFa (88-7064-76; ebiosciences) and netrin-1 (E91827Mu; USCN life science Inc) levels were measured in the serum using mouse standards according to manufacturer's guidelines. Netrin-1 in human serum was measured using a human-specific netrin-1 ELISA from USCN Life Science Inc (700176; mybiosource).
For orientation: In an ELISA, binding on a coated surface is turned into a signal by an enzyme label.

The test system of another assay is 3T3L1 adipocytes. Description: qRT-PCR of 3T3L1 adipocytes. The settings on record: palmitate treatment. Type of assay: cell-based. The method, then: as §1
as §2, with “Peritoneal macrophages were isolated as described (van Gils, et al., Nat Immunol, 2012; 13:136-143). Mice were injected intraperitoneally with 1 ml of 3% (wt/vol) thioglycolate to elicit sterile sterile peritonitis with macrophage numbers peaking on day 4. Cells were collected by lavage and used for migration assays.” left out

Another assay has as its system peritoneal macrophages. Description: Migration of palmitate-treated peritoneal macrophages to CCL19. The settings on record: treatment with palmitate. It is filed as cell-based, mouse. The method, then: as §2, with “Mice were injected intraperitoneally with 1 ml of 3% (wt/vol) thioglycolate to elicit sterile sterile peritonitis with macrophage numbers peaking on day 4. Cells were collected by lavage and used for migration assays.” left out
Migration. The migration of ATM or peritoneal macrophages to CCL19 (500 ng/ml; R&D Systems) was assessed by the xCelligence Real-time Cell Invasion and Migration system (ACEA biosciences Inc) that monitored chemotaxis every 5 minutes for over 6 h. […]

Turning to `[Cl][Co][Cl]` [CoCl2, Cobalt chloride], the “ability of BMDM to migrate to MCP-1” value in the assay on BMDM [1] is listed as “strongly impaired”. Also, the “macrophage Sema3e mRNA increase” value in the assay with BMDMs is reported as 5 fold.

On to `CCCCCCCCCCCCCCCC(=O)[O-].[Na+]` [palmitate, Sodium palmitate], for which, in the assay with BMDM [2], the “increase in Ntn1 mRNA” value is given as 5 fold and the “increase in Unc5b mRNA” value amounted to 3 fold. Besides, in assay [3], the “activity of Ntn1-promoter luciferase reporter” value was “induced the activity”. Further, the “activity of Unc5b-promoter luciferase reporter” value in assay [4] is on record as “induced the activity”. In addition, in the assay with BMDM [5], the “secretion of netrin-1 by BMDM (ELISA)” value was “induced secretion”. The “Tnfa and Il6 mRNA in adipocytes” value in the assay with 3T3L1 adipocytes is “induced expression”. In addition, in the assay with peritoneal macrophages, the “migration of peritoneal macrophages to CCL19” value is “blocked the migration”.
